This note sets out measurements from US20240268388A1, “AGRICULTURAL AND HORTICULTURAL FUNGICIDAL COMPOSITION” (NIPPON SODA CO., LTD., priority 2021, published 2024).

Assay [1] relates to soybean rust pathogen (Phakopsora pachyrhizi). The assay is described as follows: Soybean rust control test (leaf discs). The class given is in vivo. Here is the method:
Compounds of component (I) and component (II) were dissolved in dimethyl sulfoxide and diluted with water to the prescribed concentration to prepare a chemical agent solution. A mixture of the prescribed concentration of the chemical agent solution and sterile water was prepared on a microplate, and leaf discs cut from soybean leaves were floated on the microplate. Uredospores of soybean rust pathogen (Phakopsora pachyrhizi) were inoculated and incubated at 25° C. for 9 days. The area percentage of lesions was determined by observing uredospore-forming lesions on the leaf discs, and the control value was calculated. The control value was calculated by the following formula:
Control value (%)=100−{Area percentage of lesions in treatment plot/Area percentage of lesions in untreatment plot}×100.
The results are shown in Tables 8 to 18, along with the expected values calculated as below. Each expected values was calculated from the fungicidal efficacy of a single application of compound of component (I) and the fungicidal efficacy of a single application of compound of component (II) by using Colby's equation:
[formula] • where E represents the expected value of the control value for the composition containing component (I) and component (II), M represents the control value (%) when the component (I) is used alone, and N represents the control value (%) when the component (II) is used alone. When the measured control value for the composition containing component (I) and component (II) is greater than the expected value E, the composition containing component (I) and composition (II) should exert a synergistic effect.

Assay [2] relates to cucumber anthracnose pathogen (Colletotrichum lagenarium). As to the kind of experiment: Fungicidal test for cucumber anthracnose (microplate, turbidity at 405 nm). Conditions: for inhibition at 0.025 ppm / inhibition at 0.1 ppm / inhibition at 0.4 ppm: Colletotrichum orbiculare, read-out: growth inhibition rate. The class given is cell-based. How it is done:
The compounds were dissolved in dimethyl sulfoxide to prepare a chemical agent solution.
A mixture of the prescribed concentration of the chemical agent solution, cucumber anthracnose pathogen (Colletotrichum lagenarium) conidia, and Vogel medium was prepared on a microplate and incubated at 20° C. in the dark for 7 days.
Each expected value was calculated using Colby's equation:
[formula] • where E represents the expected value of the growth inhibition rate (%), M represents the growth inhibition rate (%) when the component (I) is used alone, and N represents the growth inhibition rate (%) when the component (II) is used alone.

Setting [3] is: Table 19, component (II) alone (component (I): None): Ipflufenoquin 0.000026, Iminoctadine trialbesilate 0.0032, Cyflufenamid 10, Cyprodinil 0.00013, Potassium bicarbonate 0.08, Thiophanate-methyl 0.08, Picarbutrazox 0.016, Fludioxonil 0.0032, Florylpicoxamid 0.0032, Metyltetraprole 0.08, Mefentrifluconazole 0.4 ppm.
The mark [4] stands for this setting: Table 20, component (II) alone (component (I): None): Ipflufenoquin 0.00064, Iminoctadine trialbesilate 0.0032, Cyflufenamid 10, Cyprodinil 0.00013, Potassium bicarbonate 0.08, Thiophanate-methyl 0.4, Picarbutrazox 0.016, Fludioxonil 0.0032, Florylpicoxamid 0.0032, Metyltetraprole 0.08, Mefentrifluconazole 0.4 ppm.
The mark [5] stands for this setting: Table 21, component (II) alone (component (I): None): Ipflufenoquin 0.00064, Iminoctadine trialbesilate 0.0032, Cyflufenamid 10, Cyprodinil 0.00013, Potassium bicarbonate 0.08, Thiophanate-methyl 0.4, Picarbutrazox 0.00064, Fludioxonil 0.0032, Florylpicoxamid 0.0032, Metyltetraprole 0.08, Mefentrifluconazole 0.4 ppm.
Setting [6] is: Table 22, component (II) alone (component (I): None): Ipflufenoquin 0.00064, Iminoctadine trialbesilate 0.0032, Cyflufenamid 10, Cyprodinil 0.00013, Potassium bicarbonate 0.08, Thiophanate-methyl 0.4, Picarbutrazox 0.00064, Fludioxonil 0.0032, Florylpicoxamid 0.0032, Metyltetraprole 0.08, Mefentrifluconazole 0.4 ppm.
Where [7] appears, read: Table 23, component (II) alone (component (I): None): Ipflufenoquin 0.00064, Iminoctadine trialbesilate 0.0032, Cyflufenamid 10, Cyprodinil 0.000026, Potassium bicarbonate 0.08, Thiophanate-methyl 0.4, Picarbutrazox 0.00064, Fludioxonil 0.00064, Florylpicoxamid 0.0032, Metyltetraprole 0.08, Mefentrifluconazole 0.4 ppm.
Where [8] appears, read: Table 24, component (II) alone (component (I): None): Ipflufenoquin 0.00064, Iminoctadine trialbesilate 0.0032, Cyflufenamid 10, Cyprodinil 0.00013, Potassium bicarbonate 0.08, Thiophanate-methyl 0.4, Picarbutrazox 0.00064, Fludioxonil 0.00013, Florylpicoxamid 0.0032, Metyltetraprole 0.08, Mefentrifluconazole 0.4 ppm.

Where two headings read alike, the source gives them in different places.

In general, inhibition refers to the change of the read-out against control, counted positive when it falls.

Consider `CC(C)ON=C1CCN(C(=O)Cc2ccc(-c3noc(C(F)(F)F)n3)cc2)CC1` [Compound 11], for which the control value in assay [1] (Compound 11 alone, 0.0063 ppm) turned out to be 6%; in assay [1] (Compound 11 alone, 0.025 ppm), 15%; in assay [1] (Compound 11 alone, 0.1 ppm) it was 52%; in assay [1] (Compound 11 alone, 0.4 ppm), 70%; in assay [1] (Compound 11 alone, 1.6 ppm), 84%.
Consider `O=C(Cc1ccccc1)N/C(=N\OCC1CC1)c1c(C(F)(F)F)ccc(F)c1F` [Cyflufenamid], for which the growth inhibition rate in assay [2] (setting [3]), in assay [2] (setting [4]), in assay [2] (setting [5]), in assay [2] (setting [6]), in assay [2] (setting [7]) and in assay [2] (setting [8]) was 64% throughout.
Consider `O=C(Cc1ccc(-c2noc(C(F)(F)F)n2)cc1)N1CCC(=NOCC(F)(F)F)CC1` [Compound 10], for which the inhibition at 0.025 ppm in assay [2] (Compound 10 alone) turned out to be 63%. Further, the inhibition at 0.1 ppm in assay [2] (Compound 10 alone) amounted to 52%. The inhibition at 0.4 ppm in assay [2] (Compound 10 alone) stood at 96%. The control value in assay [1] (Compound 10 alone, 0.0063 ppm) amounted to 0%; in assay [1] (Compound 10 alone, 0.025 ppm) it was 27%; in assay [1] (Compound 10 alone, 0.1 ppm) it was 42%; in assay [1] (Compound 10 alone, 0.4 ppm) it was 66%; in assay [1] (Compound 10 alone, 1.6 ppm) it was 94%.
As to `CON=C1CCN(C(=O)Cc2ccc(-c3noc(C(F)(F)F)n3)cc2)CC1` [Compound 9], in assay [2] (Compound 9 alone), the inhibition at 0.025 ppm was determined as 42%. For the same compound, the inhibition at 0.1 ppm in assay [2] (Compound 9 alone) stood at 49%. For the same compound, in assay [2] (Compound 9 alone), the inhibition at 0.4 ppm stood at 83%. The control value in assay [1] (Compound 9 alone, 0.0063 ppm) is 13%; in assay [1] (Compound 9 alone, 0.025 ppm) it was 34%; in assay [1] (Compound 9 alone, 0.1 ppm), 49%; in assay [1] (Compound 9 alone, 0.4 ppm), 96%.
On to `Cc1cccc(-n2nnn(C)c2=O)c1COc1ccn(-c2ccc(Cl)cc2)n1` [Metyltetraprole], for which the growth inhibition rate in assay [2] (setting [3]), in assay [2] (setting [4]), in assay [2] (setting [5]), in assay [2] (setting [6]), in assay [2] (setting [7]) and in assay [2] (setting [8]) was 77% in each case.
Consider `CCON=C1CCN(C(=O)Cc2ccc(-c3noc(C(F)(F)F)n3)cc2)CC1` [Compound 8], for which the inhibition at 0.025 ppm in assay [2] (Compound 8 alone) is 58%. The inhibition at 0.1 ppm in assay [2] (Compound 8 alone) was determined as 55%. Also, the inhibition at 0.4 ppm in assay [2] (Compound 8 alone) stood at 85%. The control value is 10% in assay [1] (Compound 8 alone, 0.0063 ppm); 16% in assay [1] (Compound 8 alone, 0.025 ppm); 32% in assay [1] (Compound 8 alone, 0.1 ppm); 75% in assay [1] (Compound 8 alone, 0.4 ppm); 93% in assay [1] (Compound 8 alone, 1.6 ppm).
With `N#Cc1c[nH]cc1-c1cccc2c1OC(F)(F)O2` [Fludioxonil], the growth inhibition rate was found to be 64% in assay [2] (setting [3]); 64% in assay [2] (setting [4]); 64% in assay [2] (setting [5]); 64% in assay [2] (setting [6]); 0% in assay [2] (setting [7]); 0% in assay [2] (setting [8]).
Take `O=C(Cc1ccc(-c2noc(C(F)(F)F)n2)cc1)N1CCC(=NO)CC1` [Compound 12]: the control value in assay [1] (Compound 12 alone, 0.0063 ppm) was found to be 21%; in assay [1] (Compound 12 alone, 0.025 ppm) it was 33%; in assay [1] (Compound 12 alone, 0.1 ppm) it was 64%; in assay [1] (Compound 12 alone, 0.4 ppm), 92%.
On to `Cc1cc(C2CC2)nc(Nc2ccccc2)n1` [Cyprodinil], for which the growth inhibition rate was determined as 12% in assay [2] (setting [3]); 12% in assay [2] (setting [4]); 12% in assay [2] (setting [5]); 12% in assay [2] (setting [6]); 0% in assay [2] (setting [7]); 12% in assay [2] (setting [8]).
Turning to `CC(O)(Cn1cncn1)c1ccc(Oc2ccc(Cl)cc2)cc1C(F)(F)F` (stereo not drawn) [Mefentrifluconazole], the growth inhibition rate in assay [2] (setting [3]), in assay [2] (setting [4]), in assay [2] (setting [5]), in assay [2] (setting [6]), in assay [2] (setting [7]) and in assay [2] (setting [8]) was 64% throughout.
Consider `O=C([O-])O.[K+]` [Potassium bicarbonate], for which the growth inhibition rate in assay [2] (setting [3]), in assay [2] (setting [4]), in assay [2] (setting [5]), in assay [2] (setting [6]), in assay [2] (setting [7]) and in assay [2] (setting [8]) was 53% in each case.
For `Cn1nnnc1/C(=N\OCc1cccc(NC(=O)OC(C)(C)C)n1)c1ccccc1` [Picarbutrazox], the growth inhibition rate in assay [2] (setting [3]) was found to be 87%; in assay [2] (setting [4]), 87%; in assay [2] (setting [5]) it was 0%; in assay [2] (setting [6]), 0%; in assay [2] (setting [7]), 0%; in assay [2] (setting [8]), 0%.
With `CC(C)ON=C1CN(C(=O)Cc2ccc(-c3noc(C(F)(F)F)n3)cc2)C1` [Compound 7], the control value in assay [1] (component (I) alone, 0.0063 ppm) is recorded as 16%; in assay [1] (component (I) alone, 0.025 ppm), 32%; in assay [1] (component (I) alone, 0.1 ppm) it was 64%; in assay [1] (component (I) alone, 0.4 ppm), 94%.
For the compound `CCCCCCCCCCCCc1ccc(S(=O)(=O)O)cc1.CCCCCCCCCCCCc1ccc(S(=O)(=O)O)cc1.CCCCCCCCCCCCc1ccc(S(=O)(=O)O)cc1.NC(N)=NCCCCCCCCNCCCCCCCCN=C(N)N` [Iminoctadine trialbesilate], the growth inhibition rate in assay [2] (setting [3]), in assay [2] (setting [4]), in assay [2] (setting [5]), in assay [2] (setting [6]), in assay [2] (setting [7]) and in assay [2] (setting [8]) was 22% throughout.
`CNC(=O)/C(=N/OC)c1ccccc1Oc1ccccc1` [Metominostrobin]: the control value came out at 27% in assay [1] (Table 14, component (II) alone (component (I): None): Inpyrfluxam 0.00025, Chlorothalonil 0.006, Thiophanate-methyl 0.0001, Tebuconazole 0.000025, Trifloxystrobin 0.0001, Fluazinam 0.006, Prothioconazole 0.000025, Florylpicoxamid 0.0001, Metominostrobin 0.0004 ppm); 27% in assay [1] (Table 16, component (II) alone (component (I): None): Inpyrfluxam 0.000025, Chlorothalonil 0.006, Thiophanate-methyl 0.0001, Tebuconazole 0.000025, Trifloxystrobin 0.0001, Fluazinam 0.006, Prothioconazole 0.000025, Florylpicoxamid 0.0001, Metominostrobin 0.0004 ppm); 27% in assay [1] (Table 17, component (II) alone (component (I): None): Inpyrfluxam 0.000026, Chlorothalonil 0.02, Thiophanate-methyl 0.0004, Tebuconazole 0.0001, Trifloxystrobin 0.0001, Fluazinam 0.006, Prothioconazole 0.000025, Florylpicoxamid 0.0001, Metominostrobin 0.0004 ppm).
